From patent publication US12016910B2, “Antigenic peptides for prevention and treatment of cancer” (ENTEROME S.A., priority 2018, dated 2024)

What was measured:
[1] = molecular target: T1, HLA-A*0201 (Homo sapiens, UniProt P04439, D140Y/D185E/D98H/E176V/E277Q/G131W/G231S/I119V/I121R/I166T/I218V/L300P/L318F/N151K/N90K/P208A/P217A/Q86G/Q94H/R138H/R169H/T345S); assay: Affinity of the peptide to T2 cell line: HLA-A2 labelling by FACS, relative to HIV pol 589-597; assay type: binding
T1 construct: the human tumoral cell T2 which expresses the HLA-A*0201 molecule; endogenous in cells; host or cells: T2 cells (human, TAP1/2 negative)
From the text: The experimental protocol is similar to the one that was validated for peptides presented by the HLA-A*0201 (Tourdot et al., A general strategy to enhance immunogenicity of low-affinity HLA-A2.1-associated peptides: implication in the identification of cryptic tumor epitopes. Eur J Immunol. 2000 December; 30(12):3411-21). Affinity measurement of the peptides is achieved with the human tumoral cell T2 which expresses the HLA-A*0201 molecule, but which is TAP1/2 negative and incapable of presenting endogenous peptides.
T2 cells (2.10^5 cells per well) are incubated with decreasing concentrations of peptides from 100 μM to 1.5625 μM in a AIMV medium supplemented with 100 ng/μl of human β2m at 37° C. for 16 hours. Cells are then washed two times and marked with the anti-HLA-A2 antibody coupled to PE (clone BB7.2, BD Pharmagen).
The analysis is achieved by FACS (Guava Easy Cyte).
A2. Solubilisation of Peptides
Each peptide is solubilized by taking into account the amino acid composition. […] Other peptides are resuspended in water or PBS pH7.4.
The experimental protocol, materials and methods correspond to those outlined in Example 2, with the only difference that the above mentioned (poly)peptides were used.

[2] = tested on: T cell responses (IFNγ-producing splenocytes); assay: ELISPOT-IFNγ assay on splenocytes of vaccinated HLA-A2 humanized mice; assay type: in vivo, HLA-A2 (CB6F1-Tg(HLA-A*0201/H2-Kb)A*0201) mice; conditions: 100 μg vacc-pAg + 150 μg T13L + IFA s.c. d0 and d14; splenocytes d21 restimulated with vacc-pAg 10 μM
From the text: Briefly, HLA-A2 humanized mice (HLA-A2 (CB6F1-Tg(HLA-A*0201/H2-Kb)A*0201) were assigned randomly (based on mouse sex and age) to experimental groups, wherein each group was immunized with a specific vaccination peptide (vacc-pAg) combined to a common helper peptide (h-pAg T13L; sequence: […]; SEQ ID NO: 860; Bhasin M, Singh H, Raghava GP (2003) MHCBN: a comprehensive database of MHC binding and non-binding peptides. Bioinformatics 19: 665-666) (as outlined in Table 5 below). The vacc-pAg were compared in couples (group 1 vs. group 2, group 1 vs. group 3; group 1 vs. group 4; group 5 vs. group 6; group 7 vs. group 8; group 9 vs. group 10). Thereby, both native and optimized versions of a single peptide were compared in each wave.
The peptides were provided as follows: • vacc-pAg: BIRC5-H, BIRC5-B1, BIRC5-B2, BIRC5-B3, FOXM1-H2, FOXM1-B2, EZH2-H2, EZH2-B2, 1L13RA2-H and IL13RA2-B; all produced and provided at a 4 mg/ml (4 mM) concentration; • h-pAg: T13L; Eurogentec batch 1713334 re-suspended in pure distilled water at a 10 mg/mL concentration
The animals were immunized on day 0 (d0) with a prime injection, and on d14 with a boost injection. Each mouse was injected s.c. at tail base with 100 μL of an oil-based emulsion that contained: • 100 μg of vacc-pAg (25 μL of 4 mg/mL stock per mouse); • 150 μg of h-pAg (15 μL of 10 mg/mL stock per mouse); • 10 μL of PBS to reach a total volume of 50 μL (per mouse); • Incomplete Freund's Adjuvant (IFA) added at 1:1 (v:v) ratio (50 μL per mouse).
A separate emulsion was prepared for each vacc-pAg, as follows: IFA reagent was added to the vacc-pAg/h-pAg/PBS mixture in a 15 mL tube and mixed on vortex for repeated cycles of 1 min until forming a thick emulsion.
Seven days after the boost injection (i.e. on d21), the animals were euthanized and the spleen was harvested. Splenocytes were prepared by mechanical disruption of the organ followed by 70 μm-filtering and Ficoll density gradient purification.
The splenocytes were immediately used in an ELISPOT-IFNγ assay (Table 6). Experimental conditions were repeated in triplicates, using 2*10^5 total splenocytes per well, and were cultured in presence of vacc-pAg (10 μM), lonomycin (0.1 μM) plus PMA (1 μM) or medium-only to assess for their capacity to secrete IFNγ. The commercial ELISPOT-IFNγ kit (Diaclone Kit Mujrine IFNγ ELISpot) was used following the manufacturer's instructions, and the assay was performed after about 19 h of incubation.
Spots were counted on a CTL ELISpot reader. Data plotting and statistical analysis were performed with the Prism-5 software (GraphPad Software Inc.).
The data were then normalized as a number of specific spots (the average counts obtained in the ‘medium only’ condition being subtracted) per 50*10^3 total T cells.
The individual average values (obtained from the triplicates) were next used to plot the group average values. As the functional capacity of T cells might vary from individual to individual, the data were also expressed as the percentage of the ionomycin plus PMA response per individual (see FIG. 8).

[3] = tested on: T-cells (IFN-secreting splenocytes); assay: Immunogenicity and cross-reactivity, IFN ELISpot on splenocytes of immunized HHD DR3 mice; assay type: in vivo; conditions: for immunogenicity: immune response after challenge with the vaccination peptide or the human corresponding peptide (IFN ELISpot): 100 μg peptide + 150 μg helper peptide (DR3) + IFA s.c. days 0 and 14, splenocytes day 21; for immune response against the corresponding human peptide (cross-reactivity): same immunisation
Experimental: Concanavalin A (ConA) was used as a positive control.
The antigenic peptide of the invention BIRC5-B1 (SEQ ID NO: 32) and the corresponding human peptide BIRC5-H (SEQ ID NO: 593) were tested in distinct groups of male and female HHD DR3 mice expressing human HLA-A2 and HLA-DR3 MHC and lacking the murine H-2 class I and class II MHCs. Groups of 5 mice (male and female) were subcutaneously injected on days 0 and 14 with 100 μg of BIRC5-B1 or BIRC5-H, 150 μg of helper peptide (DR3) and IFA. On day 21, the mice were euthanized and splenocytes were prepared and stimulated in vitro with BIRC5-B1 or the human peptide BIRC5-H to assess their capacity to secrete IFN—as assessed by ELISpot. ConA was used as a positive control.
The antigenic peptide of the invention FOXM1-B2 (SEQ ID NO: 220) and the corresponding human peptide FOXM1-H2 (SEQ ID NO: 674) were tested in distinct groups of male and female HHD DR3 mice expressing human HLA-A2 and HLA-DR3 MHC and lacking the murine H-2 class I and class II MHCs. Groups of 5 mice (male and female) were subcutaneously injected on days 0 and 14 with 100 μg of FOXM1-B2 or FOXM1-H2, 150 μg of helper peptide (DR3) and IFA. On day 21, the mice were euthanized and splenocytes were prepared and stimulated in vitro with FOXM1-B2 or the human corresponding peptide FOXM1-H2 to assess their capacity to secrete IFN—as assessed by ELISpot. ConA was used as a positive control

[4] = tested on: T-cells (IFN-secreting splenocytes); assay: Immunogenicity and cross-reactivity, confirmation in HHD DR1 mice; assay type: in vivo; conditions: HHD DR3 and HHD DR1 mice, summary of Examples 4 to 6

## FMLGEFLKL [BIRC5-B1]
[1]; Example 2, Table 4
  Concentration of peptide that induces 20% of HLA-A2 expression: 2.7 µM
[1]; Example 9, Table 9
  Concentration of peptide that induces 20% of HLA-A2 expression: 1.24 µM
[1]; Examples 2, 7, 8, 9
  binding affinity to HLA-A*0201 compared with the other peptides tested (in words): considerably higher in vitro binding affinity
[2]
  T cell responses in the ELISPOT-IFNγ assay compared to the respective human reference epitope: improved T cell responses
[3]
  immunogenicity: immune response after challenge with the vaccination peptide or the human corresponding peptide (IFN ELISpot): strongly immunogenic
  immune response against the corresponding human peptide (cross-reactivity): able to drive an effective immune response against human corresponding peptide
[4]
  immune responses induced: induced strong immune responses

## LMDLSTTEV [FOXM1-B2]
[1]; Example 2, Table 4
  Concentration of peptide that induces 20% of HLA-A2 expression: 6.7 µM
[2]
  T cell responses in the ELISPOT-IFNγ assay compared to the respective human reference epitope: improved T cell responses
[3]
  immunogenicity: immune response after challenge with the vaccination peptide or the human corresponding peptide (IFN ELISpot): strongly immunogenic
  immune response against the corresponding human peptide (cross-reactivity): able to drive an effective immune response against human corresponding peptide
[4]
  immune responses induced: induced strong immune responses
